Experiments:
SMN2 pre-mRNA [1] = assay: Modulation of SMN2 mRNA splicing in spinal muscular atrophy patient fibroblasts measured after 24 hrs by TaqMan qPCR analysis; format: tissue-based, Homo sapiens; conditions: fibroblast
SMN2 pre-mRNA [2] = assay: Modulation of SMN2 mRNA splicing in spinal muscular atrophy patient fibroblasts assessed as change in SMN protein expression measured after 48 hrs by MSD analysis; set-up: species or system Homo sapiens; conditions: fibroblast

`CN(c1cnc(-c2ccc(-c3cn[nH]c3)cc2O)cn1)[C@H]1C[C@@H]2CC[C@@](C)(N2)[C@H]1F` showed an EC50 (SMN2 pre-mRNA [1]) of 16 nM and an EC50 (SMN2 pre-mRNA [2]) of 0.01 nM.
Molecule `CN(c1cnc(-c2cc(F)c(-c3cn[nH]c3)cc2O)cn1)[C@H]1C[C@@H]2CC[C@@H](N2)[C@H]1F` has an EC50 (SMN2 pre-mRNA [1]) of 16 nM and an EC50 (SMN2 pre-mRNA [2]) of 0.01 nM.
Molecule `CN(c1cnc(-c2ccc(-c3cn[nH]c3)cc2O)cn1)[C@H]1C[C@@H]2CC[C@@H](N2)[C@H]1F` has an EC50 (SMN2 pre-mRNA [1]) of 16 nM and an EC50 (SMN2 pre-mRNA [2]) of 0.01 nM.
`CN(c1cnc(-c2ccc(-c3ccn(C)c(=O)c3)cc2O)cn1)[C@@H]1C[C@H]2CCC[C@H](N2)[C@@H]1F` gave an EC50 (SMN2 pre-mRNA [1]) of 51 nM and an EC50 (SMN2 pre-mRNA [2]) of 0.01 nM.
In the case of `CN(c1cnc(-c2ccc(-c3cn[nH]c3)cc2O)cn1)[C@H]1C[C@]2(C)CCC[C@@](C)(N2)[C@H]1F`, the EC50 (SMN2 pre-mRNA [1]) is reported as 16 nM and the EC50 (SMN2 pre-mRNA [2]) is reported as 0.01 nM.
In the case of `CN(c1cnc(-c2ccc(-c3cn[nH]c3)cc2O)cn1)[C@H]1C[C@@H]2CCC[C@@H](N2)[C@H]1F`, the EC50 (SMN2 pre-mRNA [1]) is reported as 16 nM and the EC50 (SMN2 pre-mRNA [2]) is reported as 0.01 nM.
